According to patent EP0414533A1, “Use of iodopropargyl esters of alpha-amino acid derivatives as antimicrobial agents” (ROHM AND HAAS COMPANY, priority 1989, dated 1991):
Like-named read-outs stand apart in the source and are kept apart here.

Assays:
[1] = tested on: Cochliobolus sativus (HEL); assay: In-vitro plant fungicide test; format: cell-based; settings: Bipolaris sorokiniana
COL = assay: In-vitro plant fungicide test; format: cell-based; settings: Table IVb, read-out: % Control at (ppm) indicated COL
MON = assay: In-vitro plant fungicide test; format: cell-based; settings: Table IVb, read-out: % Control at (ppm) indicated MON
UST = assay: In-vitro plant fungicide test; format: cell-based; settings: Table IVb, read-out: % Control at (ppm) indicated UST
THREE FUNGI = assay: MIC test against three fungi in Mycophile Broth, pH 5.0, read after 8 days (Table VII); format: cell-based; settings: 192 h, serial dilutions from 50 ppm, read after 8 days of incubation
[2] = tested on: Pseudomonas fluorescens (PSFL); assay: Minimum inhibitory concentration (MIC), broth two-fold serial dilution test; settings: Pseudomonas fluorescens, IIIB, read-out: MIC (G-) PSFL, trypticase soy broth (complex media); Table IIIb
[3] = tested on: Pseudomonas aerugenosa (PSAE); assay: as above; settings: Pseudomonas, IIIB, read-out: MIC (G-) PSAE, trypticase soy broth (complex media); Table IIIb
Text: (§1) When the test is ready to be done, each vessel in the dilution series, except the first vessel, contains an equal volume of compound free broth. The first vessel contains twice the volume of broth with the starting concentration of test compound. One half of the broth from the first vessel is transferred to the second vessel. After being mixed, one half the resulting volume is removed from the second vessel and transferred to the third vessel. The entire cycle is repeated sufficiently to give a series of concentrations amounting to 500, 250, 125, 63, 31, 16, 8, and 4 ppm (or 100, 50, 25, 12.5, 6.2, 3.1, 1.6, and 0.8), respectively.
(§2) Each vessel is then inoculated with a cell suspension of the appropriate test organism. Bacteria are grown in broth, fungi on agar slants for a time and at a temperature appropriate to the species being tested, and algae are a mixture of green algae and blue-green bacteria grown in a nutrient media. At the end of the growth period, in the case of bacteria, the broth is vortexed to disperse the cells.
(§3) The vessels are then incubated at the appropriate temperature. After the incubation, the vessels are examined for growth/no growth.

[4] = tested on: Staphylococcus aureus (SAUR); assay: as above; settings: Staphylococcus aureus, IIIB, read-out: MIC (G+) SAUR, trypticase soy broth (complex media); Table IIIb
Text: as §1, §2, §3

Pythium ultimum (PYU) = assay: In-vitro plant fungicide test; format: cell-based; settings: Globisporangium ultimum
Aspergillus niger (ANIG) = assay: Minimum inhibitory concentration (MIC), broth two-fold serial dilution test; format: cell-based; settings: Aspergillus niger, IIIB, trypticase soy broth (complex media); Table IIIb; read-out: MIC (F) ANIG
Escherichia coli (ECOL) = assay: as above; settings: Escherichia coli, IIIB, read-out: MIC (G-) ECOL, trypticase soy broth (complex media); Table IIIb
Text: as §1, §2, §3

[5] = tested on: Xanthomonas campestris (XAN); assay: In-vitro plant fungicide test; format: cell-based; settings: Xanthomonas campestris; 25 ppm; Table IVa; read-out: % Control at 25 ppm XAN
Septoria nodorum (SEP) = assay: In-vitro plant fungicide test; format: cell-based; settings: Parastagonospora nodorum
8 FUNGI = assay: Microbicides secondary test against 8 fungi on Mycophile Agar at pH 5.0 (Table VI); format: cell-based; parameters: key: 1= no growth; 0= growth of the indicated fungi at dose indicated in ppm; settings: for ANIG growth: Aspergillus niger; for APUL growth: Aureobasidium pullulans; for CGLO growth: Chaetomium globosum; for CRES growth: Cladosporium resinae; for GTRA growth: Gloeophyllum trabeum; for PFUN growth: Penicillium funiculosum; for RRUB growth: Rhodotorula rubra; for SSER growth: Sacharomyces cerevisiae
Text: The results of the minimum inhibitory concentration (MIC) tests of compounds of this invention are shown in Tables IIIa IIIb, IIIc, V, VI, VII, and VIII against the microorganisms shown in Table IX.

[6] = tested on: Phytophthora capsici (PHY); assay: In-vitro plant fungicide test; format: cell-based; settings: Phytophthora capsici
Piricularia oryzae (PIR) = assay: microbe, parasite or virus in culture; format: cell-based

CC(=O)NCC(=O)OCC#CI [Compound 28, N-acetylglycine iodopropargyl ester]
1: ANIG growth (8 FUNGI; 25 PPM) | APUL growth (8 FUNGI; 25 PPM) | CGLO growth (8 FUNGI; 25 PPM) | CRES growth (8 FUNGI; 25 PPM) | GTRA growth (8 FUNGI; 25 PPM) | PFUN growth (8 FUNGI; 25 PPM) | RRUB growth (8 FUNGI; 25 PPM) | SSER growth (8 FUNGI; 25 PPM)
0: ANIG growth (8 FUNGI; 0.2 PPM) | ANIG growth (8 FUNGI; 1.0 PPM) | ANIG growth (8 FUNGI; 2.5 PPM) | APUL growth (8 FUNGI; 0.2 PPM) | APUL growth (8 FUNGI; 1.0 PPM) | APUL growth (8 FUNGI; 2.5 PPM) | CGLO growth (8 FUNGI; 0.2 PPM) | CGLO growth (8 FUNGI; 1.0 PPM) | CGLO growth (8 FUNGI; 2.5 PPM) | CRES growth (8 FUNGI; 0.2 PPM) | CRES growth (8 FUNGI; 1.0 PPM) | CRES growth (8 FUNGI; 2.5 PPM) | GTRA growth (8 FUNGI; 0.2 PPM) | GTRA growth (8 FUNGI; 1.0 PPM) | GTRA growth (8 FUNGI; 2.5 PPM) | PFUN growth (8 FUNGI; 0.2 PPM) | PFUN growth (8 FUNGI; 1.0 PPM) | PFUN growth (8 FUNGI; 2.5 PPM) | RRUB growth (8 FUNGI; 0.2 PPM) | RRUB growth (8 FUNGI; 1.0 PPM) | RRUB growth (8 FUNGI; 2.5 PPM) | SSER growth (8 FUNGI; 0.2 PPM) | SSER growth (8 FUNGI; 1.0 PPM) | SSER growth (8 FUNGI; 2.5 PPM)
6.2 µg/mL: MIC (THREE FUNGI; Gloeophyllum trabeum, read-out: MIC GTRA)
63 µg/mL: MIC [2] | MIC [3] | MIC [4] | MIC (Escherichia coli (ECOL))
50%: inhibition of growth at 25 ppm (COL; 25 ppm) | inhibition of growth at 1.5 ppm (UST; 1.5 ppm) | inhibition of growth at 25 ppm [5]
0%: inhibition of growth at 1.5 ppm ([1]; 1.5 ppm, Table IVb, read-out: % Control at (ppm) indicated HEL) | inhibition of growth at 0.2 ppm ([1]; .2 ppm, Table IVb, read-out: % Control at (ppm) indicated HEL) | inhibition of growth at 0.4 ppm ([1]; .4 ppm, Table IVb, read-out: % Control at (ppm) indicated HEL) | inhibition of growth at 0.8 ppm ([1]; .8 ppm, Table IVb, read-out: % Control at (ppm) indicated HEL) | inhibition of growth at 1.5 ppm (COL; 1.5 ppm) | inhibition of growth at 3 ppm (COL; 3 ppm) | inhibition of growth at 6 ppm (COL; 6 ppm) | inhibition of growth at 12 ppm (COL; 12 ppm) | inhibition of growth at 0.2 ppm (COL; .2 ppm) | inhibition of growth at 0.4 ppm (COL; .4 ppm) | inhibition of growth at 0.8 ppm (COL; .8 ppm) | inhibition of growth at 1.5 ppm (MON; 1.5 ppm) | inhibition of growth at 0.2 ppm (MON; .2 ppm) | inhibition of growth at 0.4 ppm (MON; .4 ppm) | inhibition of growth at 0.8 ppm (MON; .8 ppm) | inhibition of growth at 0.2 ppm (UST; .2 ppm) | inhibition of growth at 0.4 ppm (UST; .4 ppm) | inhibition of growth at 0.8 ppm (UST; .8 ppm) | inhibition of growth at 1.5 ppm (Pythium ultimum (PYU); 1.5 ppm, Table IVb, read-out: % Control at (ppm) indicated PYU) | inhibition of growth at 0.2 ppm (Pythium ultimum (PYU); .2 ppm, Table IVb, read-out: % Control at (ppm) indicated PYU) | inhibition of growth at 0.4 ppm (Pythium ultimum (PYU); .4 ppm, Table IVb, read-out: % Control at (ppm) indicated PYU) | inhibition of growth at 0.8 ppm (Pythium ultimum (PYU); .8 ppm, Table IVb, read-out: % Control at (ppm) indicated PYU) | inhibition of growth at 1.5 ppm (Septoria nodorum (SEP); 1.5 ppm, Table IVb, read-out: % Control at (ppm) indicated SEP) | inhibition of growth at 6 ppm (Septoria nodorum (SEP); 6 ppm, Table IVb, read-out: % Control at (ppm) indicated SEP) | inhibition of growth at 0.2 ppm (Septoria nodorum (SEP); .2 ppm, Table IVb, read-out: % Control at (ppm) indicated SEP) | inhibition of growth at 0.4 ppm (Septoria nodorum (SEP); .4 ppm, Table IVb, read-out: % Control at (ppm) indicated SEP) | inhibition of growth at 0.8 ppm (Septoria nodorum (SEP); .8 ppm, Table IVb, read-out: % Control at (ppm) indicated SEP) | inhibition of growth at 1.5 ppm ([6]; 1.5 ppm, Table IVb, read-out: % Control at (ppm) indicated PHY) | inhibition of growth at 0.2 ppm ([6]; .2 ppm, Table IVb, read-out: % Control at (ppm) indicated PHY) | inhibition of growth at 0.4 ppm ([6]; .4 ppm, Table IVb, read-out: % Control at (ppm) indicated PHY) | inhibition of growth at 0.8 ppm ([6]; .8 ppm, Table IVb, read-out: % Control at (ppm) indicated PHY) | inhibition of growth at 1.5 ppm (Piricularia oryzae (PIR); 1.5 ppm, read-out: % Control at (ppm) indicated PIR) | inhibition of growth at 0.2 ppm (Piricularia oryzae (PIR); .2 ppm, read-out: % Control at (ppm) indicated PIR) | inhibition of growth at 0.4 ppm (Piricularia oryzae (PIR); .4 ppm, read-out: % Control at (ppm) indicated PIR) | inhibition of growth at 0.8 ppm (Piricularia oryzae (PIR); .8 ppm, read-out: % Control at (ppm) indicated PIR)
50 µg/mL: MIC (THREE FUNGI; Aureobasidium pullulans, read-out: MIC APUL)
12.5 µg/mL: MIC (THREE FUNGI; Aspergillus niger, read-out: MIC ANIG)
100%: inhibition of growth at 6 ppm ([1]; 6 ppm, Table IVb, read-out: % Control at (ppm) indicated HEL) | inhibition of growth at 25 ppm ([1]; Table IVa, *=Phytotoxic, read-out: % Control at 25 ppm HEL) | inhibition of growth at 25 ppm ([1]; Table IVb, read-out: % Control at (ppm) indicated HEL) | inhibition of growth at 6 ppm (MON; 6 ppm) | inhibition of growth at 25 ppm (MON; 25 ppm) | inhibition of growth at 3 ppm (UST; 3 ppm) | inhibition of growth at 6 ppm (UST; 6 ppm) | inhibition of growth at 12 ppm (UST; 12 ppm) | inhibition of growth at 25 ppm (UST; 25 ppm) | inhibition of growth at 6 ppm (Pythium ultimum (PYU); 6 ppm, Table IVb, read-out: % Control at (ppm) indicated PYU) | inhibition of growth at 25 ppm (Pythium ultimum (PYU); Table IVa, read-out: % Control at 25 ppm PYU) | inhibition of growth at 25 ppm (Pythium ultimum (PYU); Table IVb, read-out: % Control at (ppm) indicated PYU) | inhibition of growth at 25 ppm (Septoria nodorum (SEP); Table IVa, read-out: % Control at 25 ppm SEP) | inhibition of growth at 25 ppm (Septoria nodorum (SEP); Table IVb, read-out: % Control at (ppm) indicated SEP) | inhibition of growth at 6 ppm ([6]; 6 ppm, Table IVb, read-out: % Control at (ppm) indicated PHY) | inhibition of growth at 25 ppm ([6]; Table IVa, read-out: % Control at 25 ppm PHY) | inhibition of growth at 25 ppm ([6]; Table IVb, read-out: % Control at (ppm) indicated PHY) | inhibition of growth at 6 ppm (Piricularia oryzae (PIR); 6 ppm, read-out: % Control at (ppm) indicated PIR) | inhibition of growth at 25 ppm (Piricularia oryzae (PIR); 25 ppm, read-out: % Control at (ppm) indicated PIR) | inhibition of growth at 25 ppm (Piricularia oryzae (PIR); read-out: % Control at 25 ppm PIR)
2 µg/mL: MIC (Aspergillus niger (ANIG))
